# Earlier results, collected in US20240390332A1, “Combination treatment and/or prevention of renal diseases and/or hypertension in non-human mammals comprising one or more SGLT-2 inhibitors and telmisartan” (BOEHRINGER INGELHEIM VETMEDICA GMBH, priority 2023, published 2024).
# System: human patients suffering from diabetes mellitus type II
# Conditions: baseline to week 12, empagliflozin 10 mg and 25 mg groups vs placebo
smiles,measurement,value
"OC[C@H]1O[C@@H](c2ccc(Cl)c(Cc3ccc(O[C@H]4CCOC4)cc3)c2)[C@H](O)[C@@H](O)[C@@H]1O [empagliflozin, Empagliflozin]","mean 24-hour systolic BP, placebo-subtracted mean difference",up to −4.16 mmHg
